Reference: patent publication US12649750B2, “Macrocyclic compounds, compositions, and methods of using thereof” (Sionna Therapeutics Inc., priority 2022, dated 2026)

Biological target: T1, NBD1 (Homo sapiens, UniProt P13569)
T1 construct: Purified recombinant NBD1 was produced using previously described methods; made in house
Assay: Aggregation analysis using differential static light scattering (DSLS), thermal stability of NBD1 (ΔTagg)
Assay type: binding
Conditions: ΔTagg versus DMSO control, NBD1 0.2 mg/ml
Outline: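 Thermal aggregation of purified NBD1 was followed by static light scattering during a 1° C./min ramp to 70° C. Protein was at 0.2 mg/ml with 2 mM ATP at pH7.6. Each compound's Tagg was referenced to DMSO controls.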

T1 sequence (P13569 423-646 limits assumed): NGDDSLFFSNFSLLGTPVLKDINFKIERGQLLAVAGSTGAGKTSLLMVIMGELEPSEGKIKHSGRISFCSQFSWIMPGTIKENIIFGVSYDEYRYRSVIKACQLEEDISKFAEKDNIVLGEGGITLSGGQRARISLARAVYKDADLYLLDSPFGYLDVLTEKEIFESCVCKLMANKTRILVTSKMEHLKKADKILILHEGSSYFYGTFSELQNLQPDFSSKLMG

How did the “DSLS 3D (100 μM ΔT)” value turn out when `COc1c(CCC(=O)O)cccc1C1(C)CCCC(C)(C)CS(=O)(=O)CCc2c(c(F)c(F)c3[nH]ccc23)Oc2ccc(F)c(c2)-c2nc1nn2C` (stereo not drawn) [Compound 373, 3-[2-Methoxy-3-(21,22,28-trifluoro-3,6,10,10-tetramethyl-12,12-dioxo-24-oxa-12λ6-thia-3,4,19,30-tetrazapentacyclo[23.3.1.12,5.015,23.016,20]triaconta-1(29),2(30),4,15,17,20,22,25,27-nonaen-6-yl)phenyl]propanoic Acid] was run?
The value was “B (a value above 5 °C and less than or equal to 10 °C is marked “B”)”.

With `COC(=O)[C@H](C)Cc1cccc([C@@]2(C)CCCC(C)(C)CS(=O)(=O)CCc3c(c(F)cc4[nH]ccc34)Sc3cc(c(F)cc3O)-c3nc2nn3C)c1` [Compound 376, Methyl (2R)-3-[3-[(6R)-22,28-difluoro-26-hydroxy-3,6,10,10-tetramethyl-12,12-dioxo-12λ6,24-dithia-3,4,19,30-tetrazapentacyclo[23.3.1.12,5.015,23.016,20]triaconta-1(29),2(30),4,15,17,20,22,25,27-nonaen-6-yl]phenyl]-2-methyl-propanoate] as the compound, how does the “DSLS 3D (100 μM ΔT)” value read?
Its value is “A (an ΔTagg value less than or equal to 5 °C is marked “A”)”.

How did the “DSLS 3D (100 μM ΔT)” value turn out when `C[C@H](Cc1cccc([C@@]2(C)CCCC(C)(C)CS(=O)(=O)CCc3c(c(F)cc4[nH]ccc34)Sc3cc(c(F)cc3N)-c3nc2nn3C)c1)C(=O)O` [Compound 377, (2R)-3-[3-[(6R)-26-Amino-22,28-difluoro-3,6,10,10-tetramethyl-12,12-dioxo-12λ6,24-dithia-3,4,19,30-tetrazapentacyclo[23.3.1.12,5.015,23.016,20]triaconta-1(29),2(30),4,15,17,20,22,25,27-nonaen-6-yl]phenyl]-2-methyl-propanoic Acid] was run?
Its value is “B (a value above 5 °C and less than or equal to 10 °C is marked “B”)”.

How did the “DSLS 3D (100 μM ΔT)” value turn out when `C[C@H](Cc1cccc([C@@]2(C)CCCC(C)(C)CS(=O)(=O)CCc3c(c(F)cc4[nH]ccc34)Sc3cc(c(F)cc3C(=O)O)-c3nc2nn3C)c1)C(=O)O` [Compound 378, (6R)-6-[3-[(2R)-2-Carboxypropyl]phenyl]-22,28-difluoro-3,6,10,10-tetramethyl-12,12-dioxo-12λ6,24-dithia-3,4,19,30-tetrazapentacyclo[23.3.1.12,5.015,23.016,20]triaconta-1(29),2(30),4,15,17,20,22,25,27-nonaene-26-carboxylic Acid] was run?
Its value is “A (an ΔTagg value less than or equal to 5 °C is marked “A”)”.

Which “DSLS 3D (100 μM ΔT)” value does the source give for `C[C@H](Cc1cccc([C@@]2(C)CCCC(C)(C)CS(=O)(=O)CCc3c(c(F)cc4[nH]ccc34)S(=O)(=O)c3cc(c(F)cc3N)-c3nc2nn3C)c1)C(=O)O` [Compound 379C, (2R)-3-[3-[(6R)-26-Amino-22,28-difluoro-3,6,10,10-tetramethyl-12,12,24,24-tetraoxo-12λ6,24λ6-dithia-3,4,19,30-tetrazapentacyclo[23.3.1.12,5.015,23.016,20]triaconta-1(29),2(30),4,15,17,20,22,25,27-nonaen-6-yl]phenyl]-2-methyl-propanoic acid] here?
Its value is “A (an ΔTagg value less than or equal to 5 °C is marked “A”)”.

Which “DSLS 3D (100 μM ΔT)” value does the source give for `C[C@@H](Cc1cccc([C@@]2(C)CCCC(C)(C)CS(=O)(=O)CCc3c(c(F)c(F)c4[nH]ncc34)Oc3ccc(F)c(c3)-c3nc2nn3C)c1)C(=O)O` [Compound 382, (2S)-2-Methyl-3-[3-[(6R)-21,22,28-trifluoro-3,6,10,10-tetramethyl-12,12-dioxo-24-oxa-12λ6-thia-3,4,18,19,30-pentazapentacyclo[23.3.1.12,5.015,23.016,20]triaconta-1(29),2(30),4,15,17,20,22,25,27-nonaen-6-yl]phenyl]propanoic Acid] here?
Its value is “B (a value above 5 °C and less than or equal to 10 °C is marked “B”)”.

For `Cc1onc(NC(=O)[C@H](C)Cc2cccc([C@@]3(C)CCCC(C)(C)CS(=O)(=O)CCc4c(c(F)c(F)c5[nH]ccc45)Oc4ccc(F)c(c4)-c4nc3nn4C)c2)c1C` [Compound 384, (2R)—N-(4,5-Dimethylisoxazol-3-yl)-2-methyl-3-[3-[(6R)-21,22,28-trifluoro-3,6,10,10-tetramethyl-12,12-dioxo-24-oxa-12λ6-thia-3,4,19,30-tetrazapentacyclo[23.3.1.12,5.015,23.016,20]triaconta-1(29),2(30),4,15,17,20,22,25,27-nonaen-6-yl]phenyl]propenamide], which “DSLS 3D (100 μM ΔT)” value is on record?
The value was “A (an ΔTagg value less than or equal to 5 °C is marked “A”)”.

Biological target: T2, CFTR (Homo sapiens, UniProt P13569, DEL508-508)
T2 construct: Primary human bronchial epithelial cells from a ΔF508 homozygous CF donor; host or cells: primary human bronchial epithelial cells (CF-HBE), ΔF508 homozygous donor
Assay: TECC24 AUC fold over DMSO @10 μM, CFTR-mediated transepithelial chloride transport in CF-HBE cells
Assay type: cell-based
Conditions: test agent AUC divided by DMSO vehicle AUC, primary CF-HBE cells, ΔF508 homozygous donor, 48 hours incubation
Description: Example 387. TECC24 AUC Fold Over DMSO @10 μM
The effects of a test agent on CFTR-mediated transepithelial chloride transport is measured using TECC24 recording analysis. Test agents are solubilized in DMSO. Solubilized test agents are mixed with incubation medium containing DMEM/F12, Ultroser G (2%; Crescent Chemical, catalog #67042), Hyclone Fetal Clone II (2%; GE Healthcare, catalog #SH30066.02), bovine brain extract (0.25%; Lonza, catalog #CC-4098), insulin (2.5 μg/mL), IL-13 (10 ng/mL), hydrocortisone (20 nM), transferrin (2.5 μg/mL), triiodothyronine (500 nM), ethanolamine (250 nM), epinephrine (1.5 μM), phosphoethanolamine (250 nM), and retinoic acid (10 nM). Primary human bronchial epithelial cells from a ΔF508 homozygous CF donor (CF-HBE cells; from University of North Carolina Cystic Fibrosis Tissue Procurement Center), grown on Transwell HTS 24-well cell culture inserts (Costar, catalog #3378), are exposed to test agents or controls dissolved in incubation medium. The CF-HBE cells are cultured at 36.5° C. for 48 hours before TECC24 recordings are performed in the presence or absence of test agent, a positive control or vehicle (DMSO).
Following incubation, the transwell cell culture inserts containing the test agent or control-treated CF-HBE cells are loaded onto a TECC24 apparatus (TECC v7 or MTECC v2; EP Design) to record the transepithelial voltage (VT) and resistance (TEER) using 4 AgCl electrodes per well configured in current-clamp mode. The apical and basolateral bath solutions both contain (in mM) 140 NaCl, 5 KCl, 2 CaCl2, 1 MgCl2, 10 Hepes, and 10 glucose (adjusted to pH 7.4 with NaOH). To inhibit basal Na+ absorption, the ENaC inhibitor benzamil (10 μM) is added to the bath. Then, the adenylate cyclase activator, forskolin (10 μM), is added to the bath to activate CFTR. The forskolin-stimulated Cl— transport is halted by addition of CFTR inhibitor-172 (20 μM) to the bath at the end of the experiment to confirm specificity. VT and TEER recordings are digitally acquired at routine intervals using TECC or MTECC software (EP Design). VT and TEER are transformed into equivalent transepithelial Cl— current (IEQ), and the Area Under the Curve (AUC) of the IEQ time course between forskolin and CFTR inhibitor-172 addition is generated using Excel (Microsoft). Efficacy is expressed as the ratio of the test agent AUC divided by vehicle AUC. EC50s based on AUC are generated using the non-linear regression log(agonist) vs. response function in Prism software (Graphpad) with HillSlope fixed=1.
If a test agent increases the AUC of the forskolin-stimulated IEQ relative to vehicle in CF-HBE cells, and this increase is inhibited by CFTR inhibitor-172, then the test agent is considered a CFTR corrector. TECC assay efficacy is expressed as the ratio of the test agent AUC divided by DMSO vehicle AUC. As set forth in Table 2 below, a TECC value less than 12 is marked “A”; a value between 12-20 is marked “B”; a value between 20 and 80 is marked “C”. […]

T2 sequence (P13569 with tags, fused parts or gaps DEL508-508): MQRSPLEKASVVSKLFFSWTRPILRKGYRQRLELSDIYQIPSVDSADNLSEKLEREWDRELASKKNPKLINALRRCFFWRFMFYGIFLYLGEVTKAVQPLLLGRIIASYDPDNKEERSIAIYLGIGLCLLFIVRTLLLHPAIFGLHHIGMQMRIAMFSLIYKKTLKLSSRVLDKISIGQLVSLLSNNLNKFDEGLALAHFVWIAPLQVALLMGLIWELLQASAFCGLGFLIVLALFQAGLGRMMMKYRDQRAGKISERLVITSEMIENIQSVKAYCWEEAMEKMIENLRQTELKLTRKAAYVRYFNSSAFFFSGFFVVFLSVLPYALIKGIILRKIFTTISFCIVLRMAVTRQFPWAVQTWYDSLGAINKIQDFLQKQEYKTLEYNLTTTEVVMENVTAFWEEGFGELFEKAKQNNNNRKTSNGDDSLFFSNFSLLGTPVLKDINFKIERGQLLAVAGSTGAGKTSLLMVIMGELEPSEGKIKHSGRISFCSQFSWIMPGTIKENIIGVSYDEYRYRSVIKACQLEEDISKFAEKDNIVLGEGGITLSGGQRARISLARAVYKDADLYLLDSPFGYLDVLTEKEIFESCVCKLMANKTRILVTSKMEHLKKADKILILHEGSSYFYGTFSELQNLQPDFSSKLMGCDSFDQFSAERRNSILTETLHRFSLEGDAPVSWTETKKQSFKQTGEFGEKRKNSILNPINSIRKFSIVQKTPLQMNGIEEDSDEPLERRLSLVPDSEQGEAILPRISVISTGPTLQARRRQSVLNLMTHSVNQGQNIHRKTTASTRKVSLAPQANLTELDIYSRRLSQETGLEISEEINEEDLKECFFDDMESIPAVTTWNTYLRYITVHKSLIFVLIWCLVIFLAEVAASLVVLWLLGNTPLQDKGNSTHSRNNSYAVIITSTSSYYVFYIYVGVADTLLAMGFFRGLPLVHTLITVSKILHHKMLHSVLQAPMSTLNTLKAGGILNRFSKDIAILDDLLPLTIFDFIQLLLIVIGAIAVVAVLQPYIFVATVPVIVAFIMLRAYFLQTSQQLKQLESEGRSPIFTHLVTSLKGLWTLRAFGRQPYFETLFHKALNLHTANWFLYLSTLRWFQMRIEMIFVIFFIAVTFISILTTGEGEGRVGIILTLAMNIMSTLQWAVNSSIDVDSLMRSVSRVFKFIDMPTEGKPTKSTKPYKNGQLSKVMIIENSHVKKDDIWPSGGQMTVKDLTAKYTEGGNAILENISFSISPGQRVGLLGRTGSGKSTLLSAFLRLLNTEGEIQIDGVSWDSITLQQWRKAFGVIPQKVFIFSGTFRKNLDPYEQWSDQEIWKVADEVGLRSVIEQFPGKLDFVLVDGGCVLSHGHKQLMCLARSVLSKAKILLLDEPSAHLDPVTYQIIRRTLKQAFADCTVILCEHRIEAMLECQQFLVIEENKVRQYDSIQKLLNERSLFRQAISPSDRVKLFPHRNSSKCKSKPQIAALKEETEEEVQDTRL

Which “TECC (AUC, 10 μM)” value does the source give for `C[C@H](Cc1cccc(C2(C)CCCC(C)(C)CS(=O)(=O)CCc3c(c(F)cc4[nH]ccc34)Oc3ccc(F)c(c3)-c3nc2nn3C)c1)C(=O)OCCN1CCN(C)CC1` (single isomer, unassigned) [Compound 182] here?
The value was “A (a TECC value less than 12 is marked “A”)”.

`Cn1nc2nc1-c1cc(ccc1F)[S+]([O-])c1c(F)cc3[nH]ccc3c1CCS(=O)(=O)CC(C)(C)CCCC2(C)c1cccc(/C=C/C(=O)O)c1` (single isomer, unassigned) [Compound 210A, (E)-3-[3-(22,28-difluoro-3,6,10,10-tetramethyl-12,12,24-trioxo-12λ6,24λ4-dithia-3,4,19,30-tetrazapentacyclo[23.3.1.12,5.015,23.016,20]triaconta-1(29),2(30),4,15,17,20,22,25,27-nonaen-6-yl)phenyl]prop-2-enoic Acid] was tested. Which “TECC (AUC, 10 μM)” value did it give?
Its value is “C (a value between 20 and 80 is marked “C”)”.

With `Cn1nc2nc1-c1cc(ccc1F)[S+]([O-])c1c(F)cc3[nH]ccc3c1CCS(=O)(=O)CC(C)(C)CCCC2(C)c1cccc(/C=C/C(=O)O)c1` (single isomer, unassigned) [Compound 210B, (E)-3-[3-(22,28-difluoro-3,6,10,10-tetramethyl-12,12,24-trioxo-12λ6,24λ4-dithia-3,4,19,30-tetrazapentacyclo[23.3.1.12,5.015,23.016,20]triaconta-1(29),2(30),4,15,17,20,22,25,27-nonaen-6-yl)phenyl]prop-2-enoic Acid] as the compound, how does the “TECC (AUC, 10 μM)” value read?
Its value is “A (a TECC value less than 12 is marked “A”)”.

Which “TECC (AUC, 10 μM)” value does the source give for `Cn1nc2nc1-c1cc(ccc1F)[S+]([O-])c1c(F)cc3[nH]ccc3c1CCS(=O)(=O)CC(C)(C)CCCC2(C)c1cccc(/C=C/C(=O)O)c1` (single isomer, unassigned) [Compound 210C, (E)-3-[3-(22,28-difluoro-3,6,10,10-tetramethyl-12,12,24-trioxo-12λ6,24λ4-dithia-3,4,19,30-tetrazapentacyclo[23.3.1.12,5.015,23.016,20]triaconta-1(29),2(30),4,15,17,20,22,25,27-nonaen-6-yl)phenyl]prop-2-enoic Acid] here?
Its value is “B (a value between 12-20 is marked “B”)”.

Which “TECC (AUC, 10 μM)” value does the source give for `Cn1nc2nc1-c1cc(ccc1F)[S+]([O-])c1c(F)cc3[nH]ccc3c1CCS(=O)(=O)CC(C)(C)CCCC2(C)c1cccc(/C=C/C(=O)O)c1` (single isomer, unassigned) [Compound 210D, (E)-3-[3-(22,28-difluoro-3,6,10,10-tetramethyl-12,12,24-trioxo-12λ6,24λ4-dithia-3,4,19,30-tetrazapentacyclo[23.3.1.12,5.015,23.016,20]triaconta-1(29),2(30),4,15,17,20,22,25,27-nonaen-6-yl)phenyl]prop-2-enoic Acid] here?
The value was “C (a value between 20 and 80 is marked “C”)”.
